In patent US20240025919A1, “AZA-TETRACYCLIC OXAZEPINE COMPOUNDS AND USES THEREOF” (Genentech, Inc., priority 2022, published 2024):

Assays:
KRAS G12D = KRAS G12D (Homo sapiens (Human), UniProt P01116, G12D); assay: KRAS G12D LoEnz Biochemical Assay, BODIPY-GDP Exchange TR-FRET (SOS1-mediated nucleotide exchange); settings: read-out: KRas (G12D) GDP HTRF IC50
KRAS WT = KRAS WT (Homo sapiens (Human), UniProt P01116); assay: KRAS WT Biochemical Assay, BODIPY-GDP Exchange TR-FRET (Example 501; 3 nM KRAS WT, 3 nM SOS1, 60-minute incubation); settings: read-out: KRas HTRF IC50
In short: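 SOS1-mediated exchange assay: 3 nM biotin-KRAS WT with terbium-streptavidin, started with 3 nM SOS1 and 300 nM BODIPY-GDP, HEPES pH 7.5 with MgCl2. TR-FRET (520/490 nm) read after 60 min; normalized to DMSO and full-inhibition control, IC50 from 4-parameter Hill fit.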

Chain of KRAS WT (P01116-2 other isoform, or with tags, fused parts or gaps): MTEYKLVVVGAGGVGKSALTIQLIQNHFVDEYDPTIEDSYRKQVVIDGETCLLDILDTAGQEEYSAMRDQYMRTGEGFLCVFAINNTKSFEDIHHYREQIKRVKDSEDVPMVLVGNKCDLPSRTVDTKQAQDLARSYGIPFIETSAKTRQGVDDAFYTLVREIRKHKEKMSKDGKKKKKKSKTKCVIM
Chain of KRAS G12D (P01116-2 other isoform, or with tags, fused parts or gaps G12D): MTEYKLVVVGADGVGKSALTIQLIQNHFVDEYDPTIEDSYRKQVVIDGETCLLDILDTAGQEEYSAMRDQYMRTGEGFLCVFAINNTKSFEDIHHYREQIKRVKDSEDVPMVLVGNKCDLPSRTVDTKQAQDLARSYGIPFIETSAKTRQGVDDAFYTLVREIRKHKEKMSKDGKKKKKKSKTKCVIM

SMILES	IC50 (KRAS G12D) [nM]	IC50 (KRAS WT) [nM]
C[C@@H]1Oc2nc(-c3cc(N)c(F)c(F)c3CC(F)(F)F)c(F)c3nc(OC[C@@]45CCCN4C[C@H](F)C5)nc(c23)N2C[C@H]3CC[C@H](N3)[C@@H]12 [Compound 183, 2,3-Difluoro-5-((5S,5aS,6S,9R)-1-fluoro-12-(((2R,7aS)-2-fluorotetrahydro-1H-pyrrolizin-7a(5H)-yl)methoxy)-5-methyl-5a,6,7,8,9,10-hexahydro-5H-4-oxa-3,10a,11,13,14-pentaaza-6,9-methanonaphtho[1,8-ab]heptalene-2-yl)-4-(2,2,2-trifluoroethyl)aniline]	0.21	4.46
C[C@@H]1Oc2nc(-c3cc(N)c(=O)n(C)c3C(F)(F)F)c(F)c3nc(OC[C@@]45CCCN4C[C@H](F)C5)nc(c23)N2C[C@H]3CC[C@H](N3)[C@@H]12 [Compound 184, 3-Amino-5-((5S,5aS,6S,9R)-1-fluoro-12-(((2R,7aS)-2-fluorotetrahydro-1H-pyrrolizin-7a(5H)-yl)methoxy)-5-methyl-5a,6,7,8,9,10-hexahydro-5H-4-oxa-3,10a,11,13,14-pentaaza-6,9-methanonaphtho[1,8-ab]heptalene-2-yl)-1-methyl-6-(trifluoromethyl)pyridin-2(1H)-one]	1.98	393
Cc1nc(N)cc(-c2nc3c4c(nc(OC[C@@]56CCCN5C[C@H](F)C6)nc4c2F)N2C[C@H]4CC[C@H](N4)[C@H]2[C@H](C)O3)c1CC(F)(F)F [Compound 185, 4-((5S,5aS,6S,9R)-1-Fluoro-12-(((2R,7aS)-2-fluorotetrahydro-1H-pyrrolizin-7a(5H)-yl)methoxy)-5-methyl-5a,6,7,8,9,10-hexahydro-5H-4-oxa-3,10a,11,13,14-pentaaza-6,9-methanonaphtho[1,8-ab]heptalene-2-yl)-6-methyl-5-(2,2,2-trifluoromethyl)pyridin-2-amine]	1.1	107
C[C@@H]1Oc2nc(-c3cc(N)c(F)c(Cl)c3CC(F)F)c(F)c3nc(OC[C@@]45CCCN4C[C@H](F)C5)nc(c23)N2C[C@H]3CC[C@H](N3)[C@@H]12 [Compound 186, 3-Chloro-4-(2,2-difluoroethyl)-2-fluoro-5-((5S,5aS,6S,9R)-1-fluoro-12-(((2R,7aS)-2-fluorotetrahydro-1H-pyrrolizin-7a(5H)-yl)methoxy)-5-methyl-5a,6,7,8,9,10-hexahydro-5H-4-oxa-3,10a,11,13,14-pentaaza-6,9-methanonaphtho[1,8-ab]heptalene-2-yl)aniline]	0.1	5.61
C[C@@H]1Oc2nc(-c3cc(N)c(F)cc3CC(F)F)c(F)c3nc(OC[C@@]45CCCN4C[C@H](F)C5)nc(c23)N2C[C@H]3CC[C@H](N3)[C@@H]12 [Compound 187, 4-(2,2-Difluoroethyl)-2-fluoro-5-((5S,5aS,6S,9R)-1-fluoro-12-(((2R,7aS)-2-fluorotetrahydro-1H-pyrrolizin-7a(5H)-yl)methoxy)-5-methyl-5a,6,7,8,9,10-hexahydro-5H-4-oxa-3,10a,11,13,14-pentaaza-6,9-methanonaphtho[1,8-ab]heptalene-2-yl)aniline]	0.51	163
Cc1nc(N)cc(-c2nc3c4c(nc(OC[C@@]56CCCN5C[C@H](F)C6)nc4c2F)N2C[C@H]4CC[C@H](N4)[C@H]2[C@H](C)O3)c1OC(F)F [Compound 188, 5-(Difluoromethoxy)-4-((5S,5aS,6S,9R)-1-fluoro-12-(((2R,7aS)-2-fluorotetrahydro-1H-pyrrolizin-7a(5H)-yl)methoxy)-5-methyl-5a,6,7,8,9,10-hexahydro-5H-4-oxa-3,10a,11,13,14-pentaaza-6,9-methanonaphtho[1,8-ab]heptalene-2-yl)-6-methylpyridin-2-amine]	1.26	225
Cc1nc(N)cc(-c2nc3c4c(nc(OC[C@@]56CCCN5C[C@H](F)C6)nc4c2F)N2C[C@H]4CC[C@H](N4)[C@H]2[C@H](C)O3)c1CC(F)F [Compound 189, 5-(2,2-Difluoroethyl)-4-((5S,5aS,6S,9R)-1-fluoro-12-(((2R,7aS)-2-fluorotetrahydro-1H-pyrrolizin-7a(5H)-yl)methoxy)-5-methyl-5a,6,7,8,9,10-hexahydro-5H-4-oxa-3,10a,11,13,14-pentaaza-6,9-methanonaphtho[1,8-ab]heptalene-2-yl)-6-methylpyridin-2-amine]	2.31	252
C[C@@H]1Oc2nc(-c3cc(N)c(F)c(F)c3CC(F)F)c(F)c3nc(OC[C@@]45CCCN4C[C@H](F)C5)nc(c23)N2C[C@H]3CC[C@H](N3)[C@@H]12 [Compound 190, 4-(2,2-Difluoroethyl)-2,3-difluoro-5-((5S,5aS,6S,9R)-1-fluoro-12-(((2R,7aS)-2-fluorotetrahydro-1H-pyrrolizin-7a(5H)-yl)methoxy)-5-methyl-5a,6,7,8,9,10-hexahydro-5H-4-oxa-3,10a,11,13,14-pentaaza-6,9-methanonaphtho[1,8-ab]heptalene-2-yl)aniline]	0.11	10.1
Cc1c(F)c(N)nc(-c2nc3c4c(nc(OC[C@@]56CCCN5C[C@H](F)C6)nc4c2F)N2C[C@H]4CC[C@H](N4)[C@H]2[C@H](C)O3)c1C(F)(F)F [Compound 191, 3-Fluoro-6-((5S,5aS,6S,9R)-1-fluoro-12-(((2R,7aS)-2-fluorotetrahydro-1H-pyrrolizin-7a(5H)-yl)methoxy)-5-methyl-5a,6,7,8,9,10-hexahydro-5H-4-oxa-3,10a,11,13,14-pentaaza-6,9-methanonaphtho[1,8-ab]heptalen-2-yl)-4-methyl-5-(trifluoromethyl)pyridin-2-amine]	0.46	91.1
C[C@@H]1Oc2nc(N(C)c3ccc(F)c(N)c3)c(F)c3nc(OC[C@@]45CCCN4C[C@H](F)C5)nc(c23)N2C[C@H]3CC[C@H](N3)[C@@H]12 [Compound 193, 4-fluoro-Ni-((5S,5aS,6S,9R)-1-fluoro-12-(((2R,7aS)-2-fluorotetrahydro-1H-pyrrolizin-7a(5H)-yl)methoxy)-5-methyl-5a,6,7,8,9,10-hexahydro-5H-4-oxa-3,10a,11,13,14-pentaaza-6,9-methanonaphtho[1,8-ab]heptalen-2-yl)-Ni-methylbenzene-1,3-diamine]	32800	128000
Cc1nc(N)c(F)c(-c2nc3c4c(nc(OC[C@@]56CCCN5C[C@H](F)C6)nc4c2F)N2C[C@H]4CC[C@H](N4)[C@H]2[C@H](C)O3)c1C(F)(F)F [Compound 194, 3-Fluoro-4-((5S,5aS,6S,9R)-1-fluoro-12-(((2R,7aS)-2-fluorotetrahydro-1H-pyrrolizin-7a(5H)-yl)methoxy)-5-methyl-5a,6,7,8,9,10-hexahydro-5H-4-oxa-3,10a,11,13,14-pentaaza-6,9-methanonaphtho[1,8-ab]heptalen-2-yl)-6-methyl-5-(trifluoromethyl)pyridin-2-amine]	0.42	28.9
Cc1c(F)c(N)c(F)c(-c2nc3c4c(nc(OC[C@@]56CCCN5C[C@H](F)C6)nc4c2F)N2C[C@H]4CC[C@H](N4)[C@H]2[C@H](C)O3)c1Cl [Compound 195, 4-Chloro-2,6-difluoro-3-((5S,5aS,6S,9R)-1-fluoro-12-(((2R,7aS)-2-fluorotetrahydro-1H-pyrrolizin-7a(5H)-yl)methoxy)-5-methyl-5a,6,7,8,9,10-hexahydro-5H-4-oxa-3,10a,11,13,14-pentaaza-6,9-methanonaphtho[1,8-ab]heptalen-2-yl)-5-methylaniline]	0.44	108
